Results published in PMC11471595, “Quality by design-based approach for the development of an analytical method for quantifying ponatinib in rat plasma” (Heliyon, 2024).
Like-named read-outs stand apart in the source and are kept apart here.

Columns and labels:
[1] = In vivo pharmacokinetic study of ponatinib in rats (plasma by HPLC-FLD, non-compartmental analysis); set-up: species or system Male SD rats; settings: male, rat; for half-life: n = 3, read-out: T1/2 (terminal half-life) (converted)
Procedure: Animal experiments were conducted following the guidelines of the Korea Research Institute of Bioscience and Biotechnology (KRIBB-AEC-20309). Male SD rats (Koatech Inc.; Pyeongtaek, Gyeonggi, Republic of Korea) were acclimated to laboratory conditions for at least one week before experimentation. Animals were permitted ad libitum access to food and water, except during the 8 h fasting period before drug administration; however, water was continuously available.
Rats were administered ponatinib, prepared in a DMAC, cremophor EL, and 20 % HPβCD) in water (10:10:80) for intravenous (IV; 4 mg/kg) and oral administration (7.5 mg/kg). Blood samples (approximately 100 μL) were collected in lithium heparin-treated tubes through the jugular vein at 5, 15, and 30 min, and 1, 3, 6, 12, 24, 36, and 48 h for the IV group (n = 3) and at 30 min and 1, 2, 4, 6, 8, 12, 24, 36, and 48 h post-dose for the oral group (n = 3). The samples were centrifuged at 13,500×g for 10 min at 4 °C. Plasma was stored at −20 °C until analysis.
Plasma ponatinib concentrations were determined using the HPLC-FLD method developed in this study. Pharmacokinetic parameters were calculated using non-compartmental analysis via WinNonlin software (Pharsight Corporation, Mountain View, CA, USA). The key parameters were the area under the plasma concentration-time curve from zero to the last quantifiable time point (AUClast) and infinity (AUCinf), both of which were calculated using the linear trapezoidal method. The terminal half-life (T1/2) was derived from the elimination constant at the terminal phase (λ), and total clearance (CL) and the steady-state volume of distribution (Vss) were calculated. The maximum plasma concentration (Cmax) and time to reach Cmax (Tmax) were obtained directly from the plasma concentration-time graph. The oral bioavailability (F) was determined by dividing the dose-normalized AUCinf value following oral administration by that following IV administration.

[2] = Stability of ponatinib in rat plasma under storage conditions; type: in vitro ADME; settings: for Stability (%, mean ± SD): n = 3
Procedure: The stability of ponatinib in rat plasma was determined under various conditions using LQC and HQC samples in triplicate. The stability tests included bench-top exposure at room temperature for 2 h, long-term storage at −20 °C for 3 weeks, three freeze-thaw cycles, and 24-h autosampler storage at 10 °C. The stability of ponatinib was determined by comparing the measured concentrations with nominal values.

## Cc1ccc(C(=O)Nc2ccc(CN3CCN(C)CC3)c(C(F)(F)F)c2)cc1C#Cc1cnc2cccnn12 [ponatinib, Ponatinib]
[1]; SD, PO 7.5 mg/kg vs IV 4 mg/kg, dose-normalized AUCPO/AUCIV × 100, read-out: F (oral bioavailability)
  bioavailability: 48.2 ± 3.9%
[1]; IV 4 mg/kg, mean ± SD, n = 3
  AUC(0-inf): 6140 ± 750 ng·h/mL
  AUC(0-t): 6100 ± 730 ng·h/mL
[1]; IV 4 mg/kg, mean ± SD, n = 3, read-out: CL (total clearance) (converted)
  clearance: 10.9 mL/min/kg
[1]; IV 4 mg/kg, mean ± SD
  half-life: 6.84 ± 0.22 h
[1]; IV 4 mg/kg, mean ± SD, n = 3, read-out: Vss (steady-state volume of distribution)
  Vd: 5.39 ± 0.2 L/kg
[1]; PO 7.5 mg/kg, mean ± SD, n = 3
  AUC(0-inf): 5520 ± 280 ng·h/mL
  AUC(0-t): 5400 ± 270 ng·h/mL
  Cmax: 308 ± 11 ng/mL
  Tmax: 5.34 ± 2.31 h
[1]; PO 7.5 mg/kg, mean ± SD
  half-life: 8.75 ± 0.67 h
[2]; processed rat plasma, autosampler (10 °C for 24 h), HQC 800 ng/mL
  Stability (%, mean ± SD): 95.2 ± 11.1%
[2]; processed rat plasma, autosampler (10 °C for 24 h), LQC 3 ng/mL
  Stability (%, mean ± SD): 93.4 ± 1.3%
[2]; rat plasma, bench top (room temperature for 2 h), HQC 800 ng/mL
  Stability (%, mean ± SD): 91.5 ± 2.1%
[2]; rat plasma, bench top (room temperature for 2 h), LQC 3 ng/mL
  Stability (%, mean ± SD): 108 ± 6%
[2]; rat plasma, freeze-thaw (3 cycles), HQC 800 ng/mL
  Stability (%, mean ± SD): 92.1 ± 5.0%
[2]; rat plasma, freeze-thaw (3 cycles), LQC 3 ng/mL
  Stability (%, mean ± SD): 89.1 ± 7.0%
[2]; rat plasma, long term (−20 °C for 3 weeks), HQC 800 ng/mL
  Stability (%, mean ± SD): 96.4 ± 4.3%
[2]; rat plasma, long term (−20 °C for 3 weeks), LQC 3 ng/mL
  Stability (%, mean ± SD): 93.1 ± 7.9%
[2]; rat plasma, room temperature for 2 h
  Stability, range over LQC and HQC: 91.5 % to 108
